Tested on: American home dust mites
Test: Efficacy of plant essential oils (actives) against dust mite, residue on glass petri dish
Description: Efficacy of different plant essential oils (actives) against dust mite
Two different concentrations of each test actives were used
50 dust mites (American home dust mites) were used per replicate. Four replicates were used per test concentration
Chemicals were applied to the surface of 100 mm glass petri dish in acetone. The control plates received same volume of solvent (acetone) only. All plates left at room temperature for air dry. After 1 hr (complete evaporation of acetone) the dust mites were transferred to each plate.
test actives were tested with and without 2 parts of piperonyl butoxide (PBO), known synergist.
Data are the mean of four replicates (200 dust mites per test concentration per chemical)

[1] = 25 ppm, 5 min, W/PBO (2 parts piperonyl butoxide)
[2] = 25 ppm, 15 min, W/PBO (2 parts piperonyl butoxide)
[3] = 25 ppm, 60 min, W/PBO (2 parts piperonyl butoxide)
[4] = 250 ppm, 5 min, W/PBO (2 parts piperonyl butoxide)

Row | SMILES | % Mortality (25 ppm, 5 min, W/O PBO) [%] | % Mortality [1] [%] | % Mortality (25 ppm, 15 min, W/O PBO) [%] | % Mortality [2] [%] | % Mortality (25 ppm, 60 min, W/O PBO) [%] | % Mortality [3] [%] | % Mortality (250 ppm, 5 min, W/O PBO) [%] | % Mortality [4] [%] | % Mortality (250 ppm, 15 min, W/O PBO) [%] | % Mortality (250 ppm, 60 min, W/O PBO) [%] | % Mortality (250 ppm, 15 min, W/PBO (2 parts piperonyl butoxide)) [%] | % Mortality (250 ppm, 60 min, W/PBO (2 parts piperonyl butoxide)) [%]
1 | OCc1ccccc1 [BA, Benzyl Alcohol] | 53 | 68 | 61.0 | 73.0 | 68.0 | 79.0 | 90 | 100 | 98 | 100 |  | 
2 | CCC(=O)OCCc1ccccc1 [PEP, phenethyl propionate] | 54 | 63 | 60.0 | 69.0 | 62.0 | 78.0 | 80 | 97 | 92 | 99 | 99 | 100
3 | Cc1ccc(C(C)C)c(O)c1 [thymol] | 67 | 80 | 72.2 | 85.0 | 80.0 | 87.5 | 100 | 100 |  |  |  | 
